This note sets out measurements from patent US12403137B2, “Compounds and methods of use” (Tango Therapeutics, Inc., priority 2019, dated 2025).

Where only a bound is given, the exact number is not on record here.

A word on the IC50: it is the midpoint of a concentration-inhibition curve.

Test [1] deals with HAP1 MTAP-intact cell line. Kind of test: SDMA in-cell western assay, HAP1 MTAP-intact. It is filed as cell-based. The conditions noted are these: Homo sapiens. In a few lines: (§1)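 IC50 values come from an SDMA in-cell western run in isogenic HAP1 cells, either MTAP-null or expressing endogenous MTAP. The intact-to-deleted IC50 ratio is used to score MTAP selectivity.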
Test [2] has as its target T1, PRMT5 (Homo sapiens, UniProt O14744).
T1 construct: purchased Viva (custom protein)
Description: PRMT5 inhibition assay with no cofactor. In kind it is biochemical. The conditions noted are these: against PRMT5 with no cofactor; read-out: No Co-factor IC50.

For test [3], the target named is T1, PRMT5. Description: PRMT5 inhibition assay with SAM as cofactor. It is filed as biochemical. The conditions noted are these: against PRMT5 in the presence of SAM as cofactor. The source says: (§2) The Ki values can be calculated from the IC50 values as described in the Examples section. As detailed in the Examples section, for the assay performed in the presence of SAM, IC50=Ki×1.5 (Ki=IC50/1.5). For the assay performed in the presence of MTA, IC50=Ki×13.5 (Ki=IC50/13.5). Column 6 indicates the ratio between the Ki of compounds in the presence of SAM and the Ki of compounds in the presence of MTA

Test [4] concerns the target T1, PRMT5. Kind of test: PRMT5 inhibition assay with MTA as cofactor. The conditions noted are these: for IC50: against PRMT5 with MTA as cofactor; for SAM/MTA Ratio: ratio of Ki in the presence of SAM to Ki in the presence of MTA, Ki=IC50/1.5 (SAM), Ki=IC50/13.5 (MTA). It is filed as biochemical.
Text: as §2

Test [5] concerns HAP1 MTAP-deleted cell line. Kind of test: SDMA in-cell western assay, HAP1 MTAP-deleted. In kind it is cell-based. The conditions noted are these: for IC50: Homo sapiens, HAP1 MTAP-deleted (MTAP-null) cell line; for MTAP Intact/Deleted Ratio: IC50 ratio HAP1 MTAP-intact / HAP1 MTAP-deleted, >=3 fold considered MTAP-selective. In short, it runs like this: as §1

T1 sequence (O14744 whole entry): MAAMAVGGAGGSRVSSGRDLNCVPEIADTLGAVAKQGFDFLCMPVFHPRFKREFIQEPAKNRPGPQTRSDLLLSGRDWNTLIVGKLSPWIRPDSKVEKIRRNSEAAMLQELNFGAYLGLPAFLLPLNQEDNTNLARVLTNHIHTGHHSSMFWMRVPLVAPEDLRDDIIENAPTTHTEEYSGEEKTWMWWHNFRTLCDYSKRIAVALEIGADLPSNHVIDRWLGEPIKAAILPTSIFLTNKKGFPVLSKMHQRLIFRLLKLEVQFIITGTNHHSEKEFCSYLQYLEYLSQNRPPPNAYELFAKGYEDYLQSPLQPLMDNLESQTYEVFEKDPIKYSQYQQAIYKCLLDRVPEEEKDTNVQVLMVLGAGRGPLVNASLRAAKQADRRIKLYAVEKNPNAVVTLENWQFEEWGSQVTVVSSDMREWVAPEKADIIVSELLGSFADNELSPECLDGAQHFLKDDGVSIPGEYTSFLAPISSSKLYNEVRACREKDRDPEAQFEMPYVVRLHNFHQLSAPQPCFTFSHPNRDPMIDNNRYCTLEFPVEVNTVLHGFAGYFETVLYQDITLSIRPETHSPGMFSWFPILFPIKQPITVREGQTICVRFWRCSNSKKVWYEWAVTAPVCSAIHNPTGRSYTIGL
T1 sequence (Q9BQA1 whole entry partner): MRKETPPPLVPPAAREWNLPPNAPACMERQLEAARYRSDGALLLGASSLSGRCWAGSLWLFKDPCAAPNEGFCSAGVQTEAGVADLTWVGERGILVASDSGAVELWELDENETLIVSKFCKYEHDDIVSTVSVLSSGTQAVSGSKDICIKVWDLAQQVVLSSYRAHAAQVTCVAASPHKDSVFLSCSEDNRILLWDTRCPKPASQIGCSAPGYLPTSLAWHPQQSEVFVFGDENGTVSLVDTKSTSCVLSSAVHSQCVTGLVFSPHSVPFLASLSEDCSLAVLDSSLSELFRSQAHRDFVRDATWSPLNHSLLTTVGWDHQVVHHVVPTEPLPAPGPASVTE

With `Cc1ncoc1COc1ccc2c(c1)CN[C@H]([C@H](O)CNC(=O)c1cc(NC3CC4(CCC4)C3)nc(N3CCCCC3)n1)C2` [Compound 57, N-[(2R)-2-hydroxy-2-[(3S)-7-[(4-methyloxazol-5-yl)methoxy]-1,2,3,4-tetrahydroisoquinolin-3-yl]ethyl]-2-(1-piperidyl)-6-(spiro[3.3]heptan-2-ylamino)pyrimidine-4-carboxamide], the IC50 in test [1] is 1000 to 10000 nM; in test [2] it was 50 to 500 nM; in test [3], 50 to 500 nM; in test [4], 50 to 500 nM; in test [5], less than 1000 nM. The “SAM/MTA Ratio” value in test [4] is “A (a Ki ratio greater than or equal to 10 fold between the Ki in the presence of SAM and the Ki in the presence of MTA)”. For the same molecule, in test [5], the “MTAP Intact/Deleted Ratio” value is “A* (an IC50 ratio greater than or equal to 10 fold between the IC50 in the HAP1 MTAP-intact cell line and the HAP1 MTAP-deleted cell line)”.

Take `Cc1ncoc1COc1ccc2c(c1)CN[C@H]([C@H](O)CNC(=O)c1cc(NC3CCC3)cc(N3CCCCC3)c1)C2` [Compound 58, 3-(cyclobutylamino)-N-[(2R)-2-hydroxy-2-[(3S)-7-[(4-methyloxazol-5-yl)methoxy]-1,2,3,4-tetrahydroisoquinolin-3-yl]ethyl]-5-(1-piperidyl)benzamide]: the IC50 in test [1] was 1000 to 10000 nM; in test [2], 50 to 500 nM; in test [3], 50 to 500 nM; in test [4], less than 50 nM; in test [5], less than 1000 nM. In addition, the “SAM/MTA Ratio” value in test [4] is “A (a Ki ratio greater than or equal to 10 fold between the Ki in the presence of SAM and the Ki in the presence of MTA)”. Besides, in test [5], the “MTAP Intact/Deleted Ratio” value is “A* (an IC50 ratio greater than or equal to 10 fold between the IC50 in the HAP1 MTAP-intact cell line and the HAP1 MTAP-deleted cell line)”.

For the molecule `CC(=O)N1CC(Nc2cc(C(=O)NC[C@@H](O)[C@@H]3Cc4ccc(OCc5ocnc5C)cc4CN3)cc(N3CCCCC3)c2)C1` [Compound 59, 3-[(1-acetylazetidin-3-yl)amino]-N-[(2R)-2-hydroxy-2-[(3S)-7-[(4-methyloxazol-5-yl)methoxy]-1,2,3,4-tetrahydroisoquinolin-3-yl]ethyl]-5-(1-piperidyl)benzamide], the IC50 was not below 10000 nM in test [1]; 50 to 500 nM in test [2]; 50 to 500 nM in test [3]; 50 to 500 nM in test [4]; not below 10000 nM in test [5]. Besides, the “SAM/MTA Ratio” value in test [4] was “A (a Ki ratio greater than or equal to 10 fold between the Ki in the presence of SAM and the Ki in the presence of MTA)”. Further, in test [5], the “MTAP Intact/Deleted Ratio” value was “C* (an IC50 ratio of less than 3 fold between the IC50 in the HAP1 MTAP-intact cell line and the HAP1 MTAP-deleted cell line)”.

For `CC(=O)N1CCC(Nc2cc(C(=O)NC[C@@H](O)[C@@H]3Cc4ccc(OCc5ocnc5C)cc4CN3)cc(N3CCCCC3)c2)CC1` [Compound 60, 3-[(1-acetyl-4-piperidyl)amino]-N-[(2R)-2-hydroxy-2-[(3S)-7-[(4-methyloxazol-5-yl)methoxy]-1,2,3,4-tetrahydroisoquinolin-3-yl]ethyl]-5-(1-piperidyl)benzamide], the half-maximal inhibitory concentration (IC50) is not below 10000 nM in test [1]; 50 to 500 nM in test [2]; 50 to 500 nM in test [3]; less than 50 nM in test [4]; 1000 to 10000 nM in test [5]. Besides, the “SAM/MTA Ratio” value in test [4] was “A (a Ki ratio greater than or equal to 10 fold between the Ki in the presence of SAM and the Ki in the presence of MTA)”. For the same molecule, the “MTAP Intact/Deleted Ratio” value in test [5] is “C* (an IC50 ratio of less than 3 fold between the IC50 in the HAP1 MTAP-intact cell line and the HAP1 MTAP-deleted cell line)”.

For the molecule `CC(=O)N1CC(Nc2cc(C(=O)NC[C@@H](O)[C@@H]3Cc4ccc(OCc5ocnc5C)cc4CN3)nc(N3CCCC3)n2)C1` [Compound 61, 6-[(1-acetylazetidin-3-yl)amino]-N-[(2R)-2-hydroxy-2-[(3S)-7-[(4-methyloxazol-5-yl)methoxy]-1,2,3,4-tetrahydroisoquinolin-3-yl]ethyl]-2-pyrrolidin-1-yl-pyrimidine-4-carboxamide], the IC50 is not below 10000 nM in test [1]; 50 to 500 nM in test [2]; 50 to 500 nM in test [3]; less than 50 nM in test [4]; less than 1000 nM in test [5]. For the same molecule, in test [4], the “SAM/MTA Ratio” value was “A (a Ki ratio greater than or equal to 10 fold between the Ki in the presence of SAM and the Ki in the presence of MTA)”. Moreover, in test [5], the “MTAP Intact/Deleted Ratio” value was “A* (an IC50 ratio greater than or equal to 10 fold between the IC50 in the HAP1 MTAP-intact cell line and the HAP1 MTAP-deleted cell line)”.

As to `Cc1ncoc1COc1ccc2c(c1)CN[C@H]([C@H](O)CNC(=O)c1cc(NC3CCC3)nc(N3CCN(C(C)C)CC3)n1)C2` [Compound 63], the IC50 in test [1] is less than 1000 nM; in test [2], 50 to 500 nM; in test [3] it was 50 to 500 nM; in test [4], less than 50 nM; in test [5], less than 1000 nM. Further, the “SAM/MTA Ratio” value in test [4] is “A (a Ki ratio greater than or equal to 10 fold between the Ki in the presence of SAM and the Ki in the presence of MTA)”. For the same molecule, the “MTAP Intact/Deleted Ratio” value in test [5] was “C* (an IC50 ratio of less than 3 fold between the IC50 in the HAP1 MTAP-intact cell line and the HAP1 MTAP-deleted cell line)”.
